Measured values as given in patent US20220213113A1, “NITROGEN-CONTAINING CONDENSED CYCLIC COMPOUNDS, FLUORESCENCE EMITTERS, ORGANIC ELECTROLUMINESCENT DEVICES, AND MATERIALS FOR ORGANIC ELECTROLUMINESCENT DEVICES” (Samsung Electronics Co., Ltd., priority 2020, published 2022).
≈ marks a conversion by molar mass, not a printed value.

Test: Evaluation of solubility in mesitylene
Type: physicochemical
Settings: organic solvent or mixture, thermodynamic from solid; 10 mg compound in test tube, heated at 160° C., mesitylene added until completely dissolved
Protocol: 10 mg of the obtained Compounds D1 to D9 and Comparative Compound C1 were each placed in a test tube, mesitylene was added thereto, and were heated at a temperature of 160° C. Mesitylene was added thereto until the compounds were completely dissolved and the solubility was calculated.

SMILES	solubility [µg/mL]
CC(C)(C)c1cc(-c2ccc3c4c5c6cc(C(C)(C)C)ccc6n6c7cc(-c8cc(C(C)(C)C)cc(C(C)(C)C)c8)ccc7c(c7c8cc(C(C)(C)C)ccc8n(c3c2)c74)c56)cc(C(C)(C)C)c1 [Compound D6]	1000 (≈ 1.12 mM)
CC(C)(C)c1cc(-c2ccc3c4c5c6ccccc6n6c7cc(-c8cc(C(C)(C)C)cc(C(C)(C)C)c8)ccc7c(c7c8ccccc8n(c3c2)c74)c56)cc(C(C)(C)C)c1 [Compound D4]	3200 (≈ 4.1 mM)
CC(C)(C)c1cc(-c2ccc3c4c5c6cccc(-c7ccccc7)c6n6c7cc(-c8cc(C(C)(C)C)cc(C(C)(C)C)c8)ccc7c(c7c8cccc(-c9ccccc9)c8n(c3c2)c47)c56)cc(C(C)(C)C)c1 [Compound D9]	3000 (≈ 3.21 mM)
CC(C)(C)c1cc(-c2cccc3c4c5c6ccccc6n6c7c(-c8cc(C(C)(C)C)cc(C(C)(C)C)c8)cccc7c(c7c8ccccc8n(c23)c74)c56)cc(C(C)(C)C)c1 [Compound D8]	10300 (≈ 13.2 mM)
c1ccc(-c2cccc(-c3ccccc3)c2-c2ccc3c4c5c6ccccc6n6c7cc(-c8c(-c9ccccc9)cccc8-c8ccccc8)ccc7c(c7c8ccccc8n(c3c2)c74)c56)cc1 [Compound D7]	3100 (≈ 3.6 mM)
Cc1cc(C)c(-c2ccc3c(c2)c2c4c5ccccc5n5c6ccc(-c7c(C)cc(C)cc7C)cc6c(c6c7ccccc7n3c62)c45)c(C)c1 [Compound D1]	2000 (≈ 3.12 mM)

Next, values leading:

solubility [µg/mL]	SMILES
1000 (≈ 1.5 mM)	CC(C)(C)c1ccc(-c2ccc3c4c5c6ccccc6n6c7cc(-c8ccc(C(C)(C)C)cc8)ccc7c(c7c8ccccc8n(c3c2)c74)c56)cc1 [Compound D3]
10100 (≈ 11.3 mM)	CC(C)(C)c1cc(-c2ccc3c4c5c6ccc(C(C)(C)C)cc6n6c7cc(-c8cc(C(C)(C)C)cc(C(C)(C)C)c8)ccc7c(c7c8ccc(C(C)(C)C)cc8n(c3c2)c47)c56)cc(C(C)(C)C)c1 [Compound D5]
1300 (≈ 1.94 mM)	CC(C)(C)c1ccc(-c2ccc3c(c2)c2c4c5ccccc5n5c6ccc(-c7ccc(C(C)(C)C)cc7)cc6c(c6c7ccccc7n3c62)c45)cc1 [Compound D2]
